Where only a bound is given, the exact number is not on record here.

In one assay the test system is Escherichia coli W3110. Description: MIC assay, E. coli. The assay is classed as cell-based. As to conditions: Table S1, unit not given; method: starting concentration 100 μM.
The test system of another assay is VRSA VRS 1. Description: Broth microdilution MIC, VRSA VRS 1. In kind it is cell-based, S. aureus. The note with it: VRSA VRS 1. As for the experimental part:
(§1) The data is given in supporting information (Table S5). Before starting the experiment, a single colony was picked from MHA plate, inoculated in MHBII and incubated overnight at 37 °C with shaking for 18–24 h to get the starter culture. Antibiotic susceptibility testing was conducted according to the CLSI (Clinical & Laboratory Standards Institute) guidelines using the broth microdilution assay. 10 mg/mL stock solutions of test compounds were prepared in DMSO. Bacterial cultures were inoculated in MHBII and optical density (OD) was measured at 600 nm, followed by dilution to achieve ~10^6 CFU/mL. The compounds were tested from 64 to 0.5 mg/L in two-fold serial diluted fashion with 2.5 μL of each concentration added to well of a 96-well round bottom microtiter plate. Later, 97.5 μL of bacterial suspension was added to each well containing either test compound or appropriate controls. […] The MIC is defined as the lowest concentration of the compound at which there is absence of visible growth. For each test compound, MIC determinations were carried out independently three times using duplicate samples.
On the technique in general: In broth dilution the organism is exposed to a series of concentrations in liquid medium.

Another assay has as its system E. coli ATCC 25922. In words: Broth microdilution MIC, E. coli ATCC 25922. In kind it is cell-based. The protocol:
as §1

For a further assay, the system named is P. aeruginosa ATCC 27853. Description: Broth microdilution MIC, P. aeruginosa ATCC 27853. In kind it is cell-based, Pseudomonas aeruginosa. The protocol: as §1
The next assay relates to B. subtilis 168CA. Description: DiSC3(5)-based membrane potential measurement. In kind it is cell-based, Bacillus subtilis. The note with it: 3.125 µM Pt1, 25 µM Pt8. The protocol:
The membrane potential was measured according to Winkel et al. with minor modifications. B. subtilis 168CA was grown in LB containing 50 µg/mL bovine serum albumin (BSA). Cells were transferred to black 96-well polystyrene microtiter plates after reaching an OD600 of 0.3. DiSC3(5) was added to a final concentration of 1 µM, maintaining a constant concentration of 1% DMSO to avoid precipitation of the dye. After the fluorescence baseline had stabilized, antibiotic compounds were added, and measurements were continued for 30 min. Fluorescence was recorded at an excitation wavelength of 610–30 nm and an emission wavelength of 675–50 nm in a BMG Clariostar Plus plate reader.

In assay [1] the test system is RpoC-GFP (B. subtilis 1048). In words: Localization of RpoC-GFP (transcription reporter). The assay is classed as cell-based, Bacillus subtilis. As to conditions: 3.12 µM Pt1, 25 µM Pt8; 30 and 60 min. The protocol: (§2) B. subtilis strains were grown in LB containing appropriate inducer concentrations as specified in Table S10. After reaching an OD600 of 0.3, cultures were split and treated with antibiotics. Samples were withdrawn after 30 and 60 min of treatment, spotted on glass slides covered with 1% agarose films, and immediately imaged.
Figure S9: Localization of RpoC-GFP (B. subtilis 1048). Cultures were treated with 3.12 µM
(§3) (1 picture or pasted object on this page, not shown here)

In assay [2] the test system is RpsB-GFP (B. subtilis 1049). In words: Localization of RpsB-GFP (translation reporter). The assay is classed as cell-based, Bacillus subtilis. As to conditions: 3.12 µM Pt1, 25 µM Pt8; 30 and 60 min. As for the experimental part: as §2
Figure S10: Localization of RpsB-GFP (B. subtilis 1049). Cultures were treated with 3.12 µM
as §3

The subject of assay [3] is S. aureus ATCC 29213. Description: Drug interaction study (chequerboard assay). In kind it is cell-based. As for the experimental part:
All compounds were freshly prepared for the experiment. […] Following incubation, the fractional inhibitory concentration index (FICI) was calculated with the formula FICI = […], whereby FICA = MIC of drug A in combination/MIC of drug A alone and FICB = MIC of drug B in combination/MIC of drug B alone. A drug combination is considered synergistic when ∑FICI is ≤0.5, indifferent when ∑FICI is >0.5 to 4, and antagonistic when ∑FICI is >4.

Assay [4] concerns S. aureus ATCC 29213. Description: Post antibiotic effect (PAE). The assay is classed as cell-based. As to conditions: for Time for 1 log10 increase in bacterial cfu count: 1 h exposure. As for the experimental part:
Post antibiotic effect (PAE) was determined as follows. […] Following incubation, cultures were centrifuged and washed twice with pre-warmed MHBII to remove any traces of antibiotics. Finally, cells were resuspended in drug-free MHBII and incubated further at 37 °C. Samples were taken every 1 h, serially diluted, and plated on tryptic soy agar (TSA) for enumeration of CFU. […] CFU observed immediately after the removal of the drug, and C in a similarly treated drug-free control.

Assay [5] has as its system S. aureus ATCC 29213. In words: Murine superficial skin infection model. In kind it is in vivo. As to conditions: topical 2% cream, twice daily for 4 days, Swiss mice. As for the experimental part: The in vivo efficacy of Pt1 was determined in a superficial skin infection model. Briefly, male Swiss mice, 4–6 weeks old, weighing ∼22–25 g, were used throughout the study. Mice were caged alone in an individually vented cage (IVC) to check cross-contamination and to maintain aseptic conditions throughout the experiment. Ketamine and xylazine were prepared in distilled water, 40 mg/kg and 8 mg/kg of body weight, respectively, and injected intraperitoneally (IP) as a mixture of 100 μL in each mouse for anaesthesia. Then, we proceeded with the removal of fur by applying depilatory cream. The area was cleaned with sterile distilled water. Approximately 2 cm^2 of skin area was scratched until it became visibly reddened and glistening without any bleeding. For bacterial infection, a 10 μL droplet containing 10^7 CFU/mL of S. aureus ATCC 29213 was applied to the reddened area of skin. To confirm the infection, post 4 h, untreated mice were sacrificed, skin homogenized, and various dilutions of the treatment groups (6 mice per group) were plated on TSA plates. […] Henceforth, the drug regimen was comprised of twice daily application (in the morning and the evening, with an 8 h interval) for 4 days. Control mice were regularly treated with 25–30 mg each of 2% fusidic acid (LEO Pharma, Ballerup, Denmark), 2% infuzide, and base (vehicle). […]

The subject of another assay is C. albicans. On the set-up: method as in PMID 36311838. As to conditions: cited from earlier work.

As a reminder, the MIC is the lowest concentration that inhibits growth of the organism. Take `C1=C\CC/C=C\CC/1.[Cl][Pt][Cl]` [Pt1]: the “Antibacterial activity against E. coli” value in the assay on Escherichia coli W3110 is on record as above 100. The MIC with VRSA VRS 1 was 0.67 to 1.34 µM; against E. coli ATCC 25922, above 64 µg/mL; against P. aeruginosa ATCC 27853, above 64 µg/mL; in the assay with S. aureus ATCC 29213 [3] (compound alone, Table S8) it was 0.125 µg/mL. For the same compound, in the assay with B. subtilis 168CA, the “membrane depolarization (DiSC(3)5)” value is listed as “no membrane depolarization could be observed”. In assay [1], the “localization of RpoC” value is recorded as “Neither protein showed a distinct phenotype”. In addition, the “localization of RpsB” value in [2] is reported as “Neither protein showed a distinct phenotype”. The “FIC B” value in the assay with S. aureus ATCC 29213 [3] (antibiotic in combination with Pt1 / alone) came out at 1. The “FIC (FICA+FICB)” value in the assay on S. aureus ATCC 29213 [3] (combination with Pt1) was determined as 2. In addition, the Interference entry in the assay on S. aureus ATCC 29213 [3] (combination with Pt1, synergistic ≤0.5, indifferent >0.5 to 4, antagonistic >4) is reported as “no interaction”. Also, the PAE in the assay with S. aureus ATCC 29213 [4] (1x MIC), in the assay on S. aureus ATCC 29213 [4] (5x MIC) and in the assay with S. aureus ATCC 29213 [4] (10x MIC) was ~ 5.5 h in each case. Moreover, the “Time for 1 log10 increase in bacterial cfu count” value in the assay on S. aureus ATCC 29213 [4] (1x MIC), in the assay with S. aureus ATCC 29213 [4] (5x MIC) and in the assay with S. aureus ATCC 29213 [4] (10x MIC) was ~ 8 h in each case. For the same compound, the “reduction in bacterial load compared to vehicle-treated group” value in the assay with S. aureus ATCC 29213 [5] is ~ 1.9 log10 CFU/g. Moreover, in the assay with C. albicans, the fungal load result is “reduced the fungal load”.

The record behind these values is paper PMC13183915, “A platinum butterfly effect: small changes turn an anticancer drug into a non-toxic metalloantibiotic with in vivo efficacy” (npj Antimicrobials and Resistance, 2026).
